Measurements published in PubChem BioAssay AID1963968 (Molecular Pharmacology Branch, DTP, NCI, 2024).
Values joined by “and” are separate entries in the source; they are usually repeats but may differ in a detail not shown here. Equal entries are not always repeated.

Test system: 945468-187-T-J3-PDC spheroids with HUVEC/MSC, viability
Assay: Anticancer human tumor 945468-187-T-J3-PDC patient-derived rectal carcinoma cell line growth inhibition [PI3K]
Conditions: for viability, T/C: stronger effect = lower value
How it was run: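 Tumor cells were combined with HUVEC and MSCs into spheroids, then dosed with PI3K-inhibitor combinations over half-log ranges capped near clinical Cmax or 10 microM.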

[1] = curve of first compound, second compound 0.0316 µM
[2] = curve of first compound, second compound 0.1 µM
[3] = curve of first compound, second compound 0.316 µM
[4] = curve of first compound, second compound 1 µM
[5] = curve of first compound, second compound 3.16 µM
[6] = curve of first compound, second compound 10 µM
[7] = second compound 0.0316 µM, first compound 0.0316 µM
[8] = second compound 0.0316 µM, first compound 0.1 µM
[9] = second compound 0.0316 µM, first compound 0.316 µM
[10] = second compound 0.0316 µM, first compound 1 µM
[11] = second compound 0.0316 µM, first compound 3.16 µM
[12] = second compound 0.0316 µM, first compound 10 µM
[13] = second compound 0.1 µM, first compound 0.0316 µM
[14] = second compound 0.1 µM, first compound 0.1 µM
[15] = second compound 0.1 µM, first compound 0.316 µM
[16] = second compound 0.1 µM, first compound 1 µM
[17] = second compound 0.1 µM, first compound 3.16 µM
[18] = second compound 0.1 µM, first compound 10 µM
[19] = second compound 0.316 µM, first compound 0.0316 µM
[20] = second compound 0.316 µM, first compound 0.1 µM
[21] = second compound 0.316 µM, first compound 0.316 µM
[22] = second compound 0.316 µM, first compound 1 µM
[23] = second compound 0.316 µM, first compound 3.16 µM
[24] = second compound 0.316 µM, first compound 10 µM
[25] = second compound 1 µM, first compound 0.0316 µM
[26] = second compound 1 µM, first compound 0.1 µM
[27] = second compound 1 µM, first compound 0.316 µM
[28] = second compound 1 µM, first compound 1 µM
[29] = second compound 1 µM, first compound 3.16 µM
[30] = second compound 1 µM, first compound 10 µM
[31] = second compound 3.16 µM, first compound 0.0316 µM
[32] = second compound 3.16 µM, first compound 0.1 µM
[33] = second compound 3.16 µM, first compound 0.316 µM
[34] = second compound 3.16 µM, first compound 1 µM
[35] = second compound 3.16 µM, first compound 3.16 µM
[36] = second compound 3.16 µM, first compound 10 µM
[37] = second compound 10 µM, first compound 0.0316 µM
[38] = second compound 10 µM, first compound 0.1 µM
[39] = second compound 10 µM, first compound 0.316 µM
[40] = second compound 10 µM, first compound 1 µM
[41] = second compound 10 µM, first compound 3.16 µM
[42] = second compound 10 µM, first compound 10 µM
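Note: spheroids exposed to agents for 7 days before viability read.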
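Throughout, for viability, T/C: 100% = DMSO vehicle control viability.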

SMILES: CC(C)NCC(C(=O)N1CCN(c2ncnc3c2C(C)CC3O)CC1)c1ccc(Cl)cc1 (stereo not given) + Cc1nc(NC(=O)N2CCCC2C(N)=O)sc1-c1ccnc(C(C)(C)C(F)(F)F)c1
- IC50 [1]: > 10 µM
- IC50 [2]: > 10 µM
- IC50 [3]: 5.36 µM
- IC50 [4]: 2.9 µM
- IC50 [5]: 1.71 µM
- IC50 [6]: 0.303 µM
- viability, T/C [7]: 109%
- viability, T/C [8]: 116%
- viability, T/C [9]: 84.4%
- viability, T/C [10]: 94.1%
- viability, T/C [11]: 76.9%
- viability, T/C [12]: 55%
- viability, T/C [13]: 103%
- viability, T/C [14]: 101%
- viability, T/C [15]: 93.3%
- viability, T/C [16]: 91.8%
- viability, T/C [17]: 80.6%
- viability, T/C [18]: 54.6%
- viability, T/C [19]: 114%
- viability, T/C [20]: 104%
- viability, T/C [21]: 99.4%
- viability, T/C [22]: 88.3%
- viability, T/C [23]: 60%
- viability, T/C [24]: 36.4%
- viability, T/C [25]: 99.6%
- viability, T/C [26]: 104%
- viability, T/C [27]: 91.9%
- viability, T/C [28]: 80.7%
- viability, T/C [29]: 46.5%
- viability, T/C [30]: 32.6%
- viability, T/C [31]: 92.6%
- viability, T/C [32]: 87.8%
- viability, T/C [33]: 82.1%
- viability, T/C [34]: 59.3%
- viability, T/C [35]: 38.9%
- viability, T/C [36]: 27.1%
- viability, T/C [37]: 68.9%
- viability, T/C [38]: 54.6%
- viability, T/C [39]: 51%
- viability, T/C [40]: 45%
- viability, T/C [41]: 36.9%
- viability, T/C [42]: 33.2%

SMILES: CC1(C)CCC(Nc2ncc(C(F)(F)F)c(-c3c[nH]c4c(P(C)(C)=O)c(C#N)ccc34)n2)CN1 (stereo not given) + Cc1nc(NC(=O)N2CCCC2C(N)=O)sc1-c1ccnc(C(C)(C)C(F)(F)F)c1
- IC50 [1]: 5.65 µM
- IC50 [2]: 5.41 µM
- IC50 [3]: 5.06 µM
- IC50 [4]: 4.44 µM
- IC50 [5]: 1.9 µM
- IC50 [6]: 0.841 µM
- viability, T/C [7]: 81.7%
- viability, T/C [8]: 84.6%
- viability, T/C [9]: 72.8%
- viability, T/C [10]: 85.5%
- viability, T/C [11]: 101%
- viability, T/C [12]: 15.4%
- viability, T/C [13]: 91.4%
- viability, T/C [14]: 75.8%
- viability, T/C [15]: 79%
- viability, T/C [16]: 79.9%
- viability, T/C [17]: 84.4%
- viability, T/C [18]: 13.2%
- viability, T/C [19]: 82.5%
- viability, T/C [20]: 75.5%
- viability, T/C [21]: 65.4%
- viability, T/C [22]: 75.9%
- viability, T/C [23]: 85%
- viability, T/C [24]: 11.2%
- viability, T/C [25]: 107%
- viability, T/C [26]: 76.7%
- viability, T/C [27]: 72.2%
- viability, T/C [28]: 86.7%
- viability, T/C [29]: 68%
- viability, T/C [30]: 7.36%
- viability, T/C [31]: 78.5%
- viability, T/C [32]: 72.2%
- viability, T/C [33]: 75.5%
- viability, T/C [34]: 54.8%
- viability, T/C [35]: 44.5%
- viability, T/C [36]: 5.2%
- viability, T/C [37]: 65.1%
- viability, T/C [38]: 60%
- viability, T/C [39]: 50.6%
- viability, T/C [40]: 44.5%
- viability, T/C [41]: 40.2%
- viability, T/C [42]: 2.06%

SMILES: CCN1CCN(Cc2ccc(Nc3ncc(F)c(-c4cc(F)c5nc(C)n(C(C)C)c5c4)n3)nc2)CC1
- viability, T/C (compound 0.00316 µM): 91.2% [middle of 4 runs]
- viability, T/C (compound 0.01 µM): 103% and 85.4% and 90.3% (2×)
- viability, T/C (compound 0.0316 µM): 97.6% [middle of 4 runs]
- viability, T/C (compound 0.1 µM): 107% [middle of 4 runs]
- viability, T/C (compound 0.316 µM): 110% [middle of 4 runs]
- viability, T/C (compound 1 µM): 99.2% [middle of 4 runs]
- IC50 (curve of compound): > 1 µM

SMILES: CC(C)n1nc(-c2ccc3oc(N)nc3c2)c2c(N)ncnc21
- viability, T/C (compound 0.000316 µM): 91.3% [middle of 4 runs]
- viability, T/C (compound 0.001 µM): 94.2% [middle of 4 runs]
- viability, T/C (compound 0.00316 µM): 104% [middle of 4 runs]
- viability, T/C (compound 0.01 µM): 102% [middle of 4 runs]
- IC50 (curve of compound): > 0.1 µM and 0.0939 µM

SMILES: C[C@@H](NC(=O)c1ncnc(N)c1Cl)c1ncc(C(=O)Nc2cc(C(F)(F)F)c(Cl)cn2)s1
- viability, T/C (compound 0.0316 µM): 94.2% [middle of 4 runs]
- viability, T/C (compound 0.1 µM): 104% [middle of 4 runs]
- viability, T/C (compound 0.316 µM): 101% (2×) and 91.3% and 98.2%
- viability, T/C (compound 1 µM): 105% [middle of 4 runs]
- viability, T/C (compound 3.16 µM): 106% [middle of 4 runs]
- viability, T/C (compound 10 µM): 108% [middle of 4 runs]
- IC50 (curve of compound): > 10 µM

SMILES: CC1(C)CCC(CN2CCN(c3ccc(C(=O)NS(=O)(=O)c4ccc(NCC5CCOCC5)c([N+](=O)[O-])c4)c(Oc4cnc5[nH]ccc5c4)c3)CC2)=C(c2ccc(Cl)cc2)C1 + CC(Nc1ccc2c(c1)OCCn1cc(N3C(=O)OCC3C(F)F)nc1-2)C(N)=O
- IC50 (curve of first compound, second compound 0.00316 µM): > 10 µM
- IC50 (curve of first compound, second compound 0.01 µM): > 10 µM
- IC50 [1]: > 10 µM
- IC50 [2]: > 10 µM
- IC50 [3]: > 10 µM
- IC50 [4]: > 10 µM
- viability, T/C (second compound 0.00316 µM, first compound 0.0316 µM): 96.8%
- viability, T/C (second compound 0.00316 µM, first compound 0.1 µM): 112%
- viability, T/C (second compound 0.00316 µM, first compound 0.316 µM): 102%
- viability, T/C (second compound 0.00316 µM, first compound 1 µM): 114%
- viability, T/C (second compound 0.00316 µM, first compound 3.16 µM): 131%
- viability, T/C (second compound 0.00316 µM, first compound 10 µM): 52.9%
- viability, T/C (second compound 0.01 µM, first compound 0.0316 µM): 97.7%
- viability, T/C (second compound 0.01 µM, first compound 0.1 µM): 125%
- viability, T/C (second compound 0.01 µM, first compound 0.316 µM): 94%
- viability, T/C (second compound 0.01 µM, first compound 1 µM): 114%
- viability, T/C (second compound 0.01 µM, first compound 3.16 µM): 132%
- viability, T/C (second compound 0.01 µM, first compound 10 µM): 63.2%
- viability, T/C [7]: 121%
- viability, T/C [8]: 101%
- viability, T/C [9]: 112%
- viability, T/C [10]: 121%
- viability, T/C [11]: 125%
- viability, T/C [12]: 63.2%
- viability, T/C [13]: 121%
- viability, T/C [14]: 114%
- viability, T/C [15]: 105%
- viability, T/C [16]: 126%
- viability, T/C [17]: 125%
- viability, T/C [18]: 65.5%
- viability, T/C [19]: 107%
- viability, T/C [20]: 103%
- viability, T/C [21]: 102%
- viability, T/C [22]: 113%
- viability, T/C [23]: 120%
- viability, T/C [24]: 73.2%
- viability, T/C [25]: 79.2%
- viability, T/C [26]: 68%
- viability, T/C [27]: 80%
- viability, T/C [28]: 79.2%
- viability, T/C [29]: 81.1%
- viability, T/C [30]: 53.9%
